Measured values reported in EP0052437A1, “Antibacterial compounds, processes for their preparation and compositions containing them” (BEECHAM GROUP PLC, priority 1980, dated 1982).
≈ marks a conversion by molar mass, not a printed value.

Assays:
Assay type in all cases: cell-based
M. suipneumoniae NB12 = assay: Anti-mycoplasmal in vitro MIC; settings: Mesomycoplasma hyopneumoniae, 144 h, Friis broth solidified with 0.9% agarose, 6 days incubation at 37°C
M. suipneumoniae JF 435 = assay: Anti-mycoplasmal in vitro MIC; settings: Mesomycoplasma hyopneumoniae, JF435, 144 h, Friis broth solidified with 0.9% agarose, 6 days incubation at 37°C
M. suipneumoniae HK(2) = assay: Anti-mycoplasmal in vitro MIC; settings: Mesomycoplasma hyopneumoniae, 144 h, Friis broth solidified with 0.9% agarose, 6 days incubation at 37°C
M. suipneumoniae Str. 11 = assay: Anti-mycoplasmal in vitro MIC; settings: Mesomycoplasma hyopneumoniae, 144 h, Friis broth solidified with 0.9% agarose, 6 days incubation at 37°C
[1] = test system: M. suipneumoniae J2206/183b; assay: Anti-mycoplasmal in vitro MIC; settings: Mesomycoplasma hyopneumoniae, 144 h, Friis broth solidified with 0.9% agarose, 6 days incubation at 37°C
M. suipneumoniae MS 16 = assay: Anti-mycoplasmal in vitro MIC; settings: Mesomycoplasma hyopneumoniae, MS16, 144 h, Friis broth solidified with 0.9% agarose, 6 days incubation at 37°C
M. suipneumoniae UCD 1 = assay: Anti-mycoplasmal in vitro MIC; settings: Mesomycoplasma hyopneumoniae, UCD1, 144 h, Friis broth solidified with 0.9% agarose, 6 days incubation at 37°C
M. suipneumoniae TAM 6N = assay: Anti-mycoplasmal in vitro MIC; settings: Mesomycoplasma hyopneumoniae, TAM6N, 144 h, Friis broth solidified with 0.9% agarose, 6 days incubation at 37°C
[2] = test system: M. suipneumoniae ATCC 25095; assay: Anti-mycoplasmal in vitro MIC; settings: Mesomycoplasma hyopneumoniae, ATCC25095, 144 h, Friis broth solidified with 0.9% agarose, 6 days incubation at 37°C
[3] = test system: M. suipneumoniae NCTC 10110; assay: Anti-mycoplasmal in vitro MIC; settings: Mesomycoplasma hyopneumoniae, NCTC10110, 144 h, Friis broth solidified with 0.9% agarose, 6 days incubation at 37°C
M. hyorhinis ATCC 23234 = assay: Anti-mycoplasmal in vitro MIC; settings: Mesomycoplasma hyorhinis, ATCC23234, 144 h, Friis broth solidified with 0.9% agarose, 6 days incubation at 37°C
M. hyorhinis ATCC 25021 = assay: Anti-mycoplasmal in vitro MIC; settings: Mesomycoplasma hyorhinis, ATCC25021, 144 h, Friis broth solidified with 0.9% agarose, 6 days incubation at 37°C
M. pneumoniae ATCC 15492 = assay: Anti-mycoplasmal in vitro MIC; settings: Mycoplasmoides pneumoniae, ATCC15492, 144 h, Friis broth solidified with 0.9% agarose, 6 days incubation at 37°C
[4] = test system: Haemophilus influenzae Q1; assay: Human bacteria MIC; settings: nutrient agar with 5% chocolated horse blood, 18 hours at 37°C
Experimental: (§1) The values were determined by serial dilutions in nutrient agar with 5% chocolated horse blood after incubations for 18 hours at 37 °C.

[5] = test system: Haemophilus influenzae Wy21; assay: Human bacteria MIC; settings: nutrient agar with 5% chocolated horse blood, 18 hours at 37°C
Experimental: as §1

Strep. 2788-B = assay: Human bacteria MIC; settings: nutrient agar with 5% chocolated horse blood, 18 hours at 37°C
Experimental: as §1

Strep. pneumoniae CN33 = assay: Human bacteria MIC; settings: Streptococcus pneumoniae, nutrient agar with 5% chocolated horse blood, 18 hours at 37°C
Experimental: as §1

[6] = test system: Strep. pyogenes R80/421-A; assay: Human bacteria MIC; settings: Streptococcus pyogenes, nutrient agar with 5% chocolated horse blood, 18 hours at 37°C
Experimental: as §1

M. bovis NCTC 10131 = assay: microbe, parasite or virus in culture; settings: NCTC10131, 144 h
[7] = test system: Treponema hyodysenterial B10; assay: Swine dysentery MIC (inhibition of β-haemolysis); settings: 72 h, Strain B10, horse blood agar, 37°C for 3 days, anaerobic, lowest concentration to inhibit β-haemolysis
Experimental: (§2) The activity of the compounds of Examples 2 and 3 against various strains of Treponema hyodysenterial, associated with swine dysentry, were determined.
(§3) MIC values (µg/ml) of the compounds were determined by incorporating the compounds in horse blood agar, inoculating (multi-point) with 0.001 ml of 3 day growth from base of blood slope (+ 1 ml foetal calf serum) and incubating at 37°C for 3 days under aneorobic conditions (Gas Pak 150). The MIC values were taken as the lowest concentrations to inhibit β-haemolysis.

[8] = test system: Treponema hyodysenterial Navis; assay: Swine dysentery MIC (inhibition of β-haemolysis); settings: 72 h, Strain Navis, horse blood agar, 37°C for 3 days, anaerobic, lowest concentration to inhibit β-haemolysis
Experimental: as §2, §3

[9] = test system: Treponema hyodysenterial P23; assay: Swine dysentery MIC (inhibition of β-haemolysis); settings: 72 h, Strain P23, horse blood agar, 37°C for 3 days, anaerobic, lowest concentration to inhibit β-haemolysis
Experimental: as §2, §3

[10] = test system: Treponema hyodysenterial S77/10; assay: Swine dysentery MIC (inhibition of β-haemolysis); settings: 72 h, Strain S77/10, horse blood agar, 37°C for 3 days, anaerobic, lowest concentration to inhibit β-haemolysis
Experimental: as §2, §3

[11] = test system: Treponema hyodysenterial S77/2; assay: Swine dysentery MIC (inhibition of β-haemolysis); settings: 72 h, Strain S77/2, horse blood agar, 37°C for 3 days, anaerobic, lowest concentration to inhibit β-haemolysis
Experimental: as §2, §3

[12] = test system: Treponema hyodysenterial S73/2; assay: Swine dysentery MIC (inhibition of β-haemolysis); settings: 72 h, Strain S73/2, horse blood agar, 37°C for 3 days, anaerobic, lowest concentration to inhibit β-haemolysis
Experimental: as §2, §3

[13] = test system: Treponema hyodysenterial TH3; assay: Swine dysentery MIC (inhibition of β-haemolysis); settings: 72 h, Strain TH3, horse blood agar, 37°C for 3 days, anaerobic, lowest concentration to inhibit β-haemolysis
Experimental: as §2, §3

Structure (SMILES) | MIC (M. suipneumoniae NB12) [µg/mL] | MIC (M. suipneumoniae JF 435) [µg/mL] | MIC (M. suipneumoniae HK(2)) [µg/mL] | MIC (M. suipneumoniae Str. 11) [µg/mL] | MIC [1] [µg/mL] | MIC (M. suipneumoniae MS 16) [µg/mL] | MIC (M. suipneumoniae UCD 1) [µg/mL] | MIC (M. suipneumoniae TAM 6N) [µg/mL] | MIC [2] [µg/mL] | MIC [3] [µg/mL] | MIC (M. hyorhinis ATCC 23234) [µg/mL] | MIC (M. hyorhinis ATCC 25021) [µg/mL] | MIC (M. pneumoniae ATCC 15492) [µg/mL] | MIC [4] [µg/mL] | MIC [5] [µg/mL] | MIC (Strep. 2788-B) [µg/mL] | MIC (Strep. pneumoniae CN33) [µg/mL] | MIC [6] [µg/mL] | MIC (M. bovis NCTC 10131) [µg/mL] | MIC [7] [µg/mL] | other results
C/C(=C\C(=O)OCc1ccccc1C#N)CC1OCC(CC2OC2C(C)C(C)O)C(O)C1O (centres unmarked) [Example 1, o-Cyanobenzyl monate A] | 0.5 (≈ 1.09 µM) | 1 (≈ 2.18 µM) | 1 (≈ 2.18 µM) | 1 (≈ 2.18 µM) | 1 (≈ 2.18 µM) | 0.5 (≈ 1.09 µM) | 1 (≈ 2.18 µM) | 2.5 (≈ 5.44 µM) | 0.5 (≈ 1.09 µM) | 1 (≈ 2.18 µM) | 0.5 (≈ 1.09 µM) | 0.5 (≈ 1.09 µM) | 2.5 (≈ 5.44 µM) | 0.25 (≈ 0.544 µM) | 0.25 (≈ 0.544 µM) | 5 (≈ 10.9 µM) | 1 (≈ 2.18 µM) | 0.5 (≈ 1.09 µM) |  |  | 
C/C(=C\C(=O)OCc1cccc(C#N)c1)CC1OCC(CC2OC2C(C)C(C)O)C(O)C1O (centres unmarked) [Example 2, m-Cyanobenzyl monate A] | 0.05 (≈ 0.109 µM) | 0.1 (≈ 0.218 µM) | 0.1 (≈ 0.218 µM) | 0.05 (≈ 0.109 µM) | 0.05 (≈ 0.109 µM) | 0.05 (≈ 0.109 µM) | 0.1 (≈ 0.218 µM) | 0.1 (≈ 0.218 µM) | 0.05 (≈ 0.109 µM) | 0.05 (≈ 0.109 µM) | 0.025 (≈ 0.0544 µM) | 0.025 (≈ 0.0544 µM) | 0.5 (≈ 1.09 µM) | 0.1 (≈ 0.218 µM) | 0.1 (≈ 0.218 µM) |  | 0.5 (≈ 1.09 µM) |  | ≤ 0.01 | 10 (≈ 21.8 µM) | MIC [8]: 10 µg/mL (≈ 21.8 µM); MIC [9]: 10 µg/mL (≈ 21.8 µM); MIC [10]: 10 µg/mL (≈ 21.8 µM); MIC [11]: 10 µg/mL (≈ 21.8 µM)
C/C(=C\C(=O)OCc1ccc(C#N)cc1)CC1OCC(CC2OC2C(C)C(C)O)C(O)C1O (centres unmarked) [Example 3, p-Cyanobenzyl monate A] | 0.25 (≈ 0.544 µM) | 0.25 (≈ 0.544 µM) | 0.25 (≈ 0.544 µM) | 0.1 (≈ 0.218 µM) | 0.25 (≈ 0.544 µM) | 0.1 (≈ 0.218 µM) | 0.25 (≈ 0.544 µM) | 0.25 (≈ 0.544 µM) | 0.25 (≈ 0.544 µM) | 0.25 (≈ 0.544 µM) | 0.1 (≈ 0.218 µM) | 0.1 (≈ 0.218 µM) | 0.25 (≈ 0.544 µM) | 0.1 (≈ 0.218 µM) |  | 0.5 (≈ 1.09 µM) | 0.25 (≈ 0.544 µM) | 0.1 (≈ 0.218 µM) | < 0.01 | 20 (≈ 43.5 µM) | MIC [8]: 10 µg/mL (≈ 21.8 µM); MIC [9]: 40 µg/mL (≈ 87 µM); MIC [12]: 5 µg/mL (≈ 10.9 µM); MIC [10]: 10 µg/mL (≈ 21.8 µM); MIC [11]: 10 µg/mL (≈ 21.8 µM); MIC [13]: 5 µg/mL (≈ 10.9 µM)
C/C(=C\C(=O)OC(C)c1ccc(C#N)cc1)CC1OCC(CC2OC2C(C)C(C)O)C(O)C1O (centres unmarked) [Example 4, 1-(p-Cyanophenyl)ethyl monate A] | 1 (≈ 2.11 µM) | 1 (≈ 2.11 µM) | 2.5 (≈ 5.28 µM) | 1 (≈ 2.11 µM) | 2.5 (≈ 5.28 µM) | 1 (≈ 2.11 µM) | 1 (≈ 2.11 µM) | 2.5 (≈ 5.28 µM) | 1 (≈ 2.11 µM) | 2.5 (≈ 5.28 µM) | 0.5 (≈ 1.06 µM) | 0.5 (≈ 1.06 µM) | 5 (≈ 10.6 µM) | 0.5 (≈ 1.06 µM) | 0.5 (≈ 1.06 µM) | 5 (≈ 10.6 µM) | 2.5 (≈ 5.28 µM) |  | ≤ 0.01 |  | 
C/C(=C\C(=O)OCc1cccc(C#N)c1)CC1OCC(C/C=C/C(C)C(C)O)C(O)C1O (centres unmarked) [Example 5, m-Cyanobenzyl monate C] | 0.5 (≈ 1.13 µM) | 1 (≈ 2.25 µM) | 1 (≈ 2.25 µM) | 0.5 (≈ 1.13 µM) | 1 (≈ 2.25 µM) | 0.5 (≈ 1.13 µM) | 1 (≈ 2.25 µM) | 1 (≈ 2.25 µM) | 0.5 (≈ 1.13 µM) | 1 (≈ 2.25 µM) | 0.5 (≈ 1.13 µM) | 0.5 (≈ 1.13 µM) | 5 (≈ 11.3 µM) |  | 2.5 (≈ 5.64 µM) | 5 (≈ 11.3 µM) |  | 2.5 (≈ 5.64 µM) | 0.05 (≈ 0.113 µM) |  | 
C/C(=C\C(=O)OCc1cc(C#N)cc(C#N)c1)CC1OCC(CC2OC2C(C)C(C)O)C(O)C1O (centres unmarked) [Example 6, 3,5-Dicyanobenzyl monate A] | 0.1 (≈ 0.206 µM) | 0.1 (≈ 0.206 µM) | 0.1 (≈ 0.206 µM) | 0.05 (≈ 0.103 µM) | 0.1 (≈ 0.206 µM) | 0.05 (≈ 0.103 µM) | 0.1 (≈ 0.206 µM) | 0.1 (≈ 0.206 µM) | 0.05 (≈ 0.103 µM) | 0.1 (≈ 0.206 µM) | 0.05 (≈ 0.103 µM) | 0.05 (≈ 0.103 µM) | 2.5 (≈ 5.16 µM) | 0.5 (≈ 1.03 µM) |  |  |  | 1 (≈ 2.06 µM) | 0.025 (≈ 0.0516 µM) |  | 
